Test results taken from patent publication US20050054692A1, “Azanthranylalkyl and -cycloalkyl amides and their use as VEGF receptor inhibitors” (priority 2000, published 2005).

Experiments:
VEGFR II (KDR kinase) = VEGFR II (KDR kinase) (Homo sapiens, UniProt P35968); experiment: Inhibition of KDR kinase activity (33P-ATP, poly-(Glu4Tyr) filter assay); format: biochemical; settings: 10 minutes at room temperature; poly-(Glu4Tyr) substrate
Experimental: Solutions Required for the Tests
Stock solution A: 3mM ATP in water pH 7.0 (−70° C.)
Stock solution B: g-33P-ATP 1 mCi/100 μl
Stock solution C: poly-(Glu4Tyr) 10 mg/ml in water
Substrate solvent: 10 mM DTT, 10 mM manganese chloride 100 mM magnesium chloride
Enzyme solution: 120 mM Tris/HCl, pH 7,5,10 μM sodium vanadium oxide
Inhibition of KDR- and FLT-1 kinase activity in the presence of the compounds according to the invention
10 μl of substrate mix [10 μl vol ATP stock solution A+25 μCi g-33P-ATP (ca. 2.5 μl of stock solution B)+30 μl poly-(Glu4Tyr) stock solution C+1.21 ml substrate solvent], 10 μl inhibitor solution [substances corresponding to the dilutions, as a control 3% DMSO in substrate solvent] and 10 μl enzyme solution [11.25 μg enzyme stock solution (KDR or FLT-1 kinase) are diluted at 4° C. in 1.25 ml enzyme solution], are added to a tapering microtitre plate (without protein binding). The mixture is mixed thoroughly and incubated for 10 minutes at room temperature. Subsequently, 10 μl of stop solution (250 mM EDTA, pH 7.0) is added, mixed and 10 μl of the solution transferred to a P 81 phosphocellulose filter. It is subsequently washed several times in 0.1 M phosphoric acid. The filter paper is dried, coated with MeltiLex and measured in a MicroBeta counter.
The IC50 values are determined from the concentration of inhibitor required to inhibit the phosphate incorporation to 50% of the uninhibited incorporation after deducting the reference value (EDTA-stopped reaction).

VEGFR II (KDR kinase), sequence (P35968 20-1356): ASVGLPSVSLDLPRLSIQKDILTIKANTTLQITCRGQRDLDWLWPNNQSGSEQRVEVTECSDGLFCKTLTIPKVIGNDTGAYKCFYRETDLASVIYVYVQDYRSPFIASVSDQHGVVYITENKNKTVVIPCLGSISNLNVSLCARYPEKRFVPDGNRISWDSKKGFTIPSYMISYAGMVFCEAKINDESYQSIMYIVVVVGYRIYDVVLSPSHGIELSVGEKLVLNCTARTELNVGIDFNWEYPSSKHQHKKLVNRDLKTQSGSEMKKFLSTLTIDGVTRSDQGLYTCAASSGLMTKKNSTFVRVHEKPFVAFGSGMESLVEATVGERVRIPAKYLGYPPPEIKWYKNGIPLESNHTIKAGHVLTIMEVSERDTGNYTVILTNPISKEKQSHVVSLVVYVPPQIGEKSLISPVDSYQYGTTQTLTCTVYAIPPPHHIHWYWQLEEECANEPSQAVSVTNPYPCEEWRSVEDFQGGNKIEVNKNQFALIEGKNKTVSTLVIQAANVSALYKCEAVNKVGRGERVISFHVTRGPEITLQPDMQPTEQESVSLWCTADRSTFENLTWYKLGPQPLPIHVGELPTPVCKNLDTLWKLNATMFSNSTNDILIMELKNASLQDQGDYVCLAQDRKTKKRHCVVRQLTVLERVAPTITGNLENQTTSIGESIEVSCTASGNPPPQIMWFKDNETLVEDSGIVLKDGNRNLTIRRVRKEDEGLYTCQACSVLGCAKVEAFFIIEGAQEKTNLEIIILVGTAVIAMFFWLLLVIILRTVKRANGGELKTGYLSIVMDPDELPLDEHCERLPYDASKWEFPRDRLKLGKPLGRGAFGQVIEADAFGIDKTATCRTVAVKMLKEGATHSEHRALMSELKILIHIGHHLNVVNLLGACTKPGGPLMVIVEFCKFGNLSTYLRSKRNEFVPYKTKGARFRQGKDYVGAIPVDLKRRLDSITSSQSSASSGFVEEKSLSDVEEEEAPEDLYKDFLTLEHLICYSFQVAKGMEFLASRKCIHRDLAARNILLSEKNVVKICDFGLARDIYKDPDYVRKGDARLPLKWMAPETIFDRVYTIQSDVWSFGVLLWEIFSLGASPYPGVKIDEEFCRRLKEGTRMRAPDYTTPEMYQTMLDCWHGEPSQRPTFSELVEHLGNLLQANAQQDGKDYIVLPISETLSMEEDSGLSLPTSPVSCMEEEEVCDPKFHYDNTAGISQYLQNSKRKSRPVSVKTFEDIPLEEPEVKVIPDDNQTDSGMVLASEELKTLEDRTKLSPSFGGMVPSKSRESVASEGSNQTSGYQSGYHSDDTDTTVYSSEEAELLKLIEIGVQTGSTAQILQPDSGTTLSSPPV

Compound: O=C(NC1CCCCCCC1)c1ccccc1NCc1ccncc1 [Example 1.4]
- IC50 (VEGFR II (KDR kinase)): 80 nM
- melting point: 103 to 104 °C

Compound: CC(C)(C)[C@H]1CC[C@H](NC(=O)c2ccccc2NCc2ccncc2)CC1 [Example 1.8]
- IC50 (VEGFR II (KDR kinase)): 39 nM
- melting point: 118.4 °C

Compound: CCCCCCCCCCNC(=O)c1ccccc1NCc1ccncc1 [Example 1.14]
- IC50 (VEGFR II (KDR kinase)): 200 nM

Compound: CC(C)(C)CCNC(=O)c1ccccc1NCc1ccncc1 [Example 1.19]
- IC50 (VEGFR II (KDR kinase)): 50 nM

Compound: CC(C)CC(C)NC(=O)c1ccccc1NCc1ccncc1 (stereo not drawn) [Example 1.23]
- IC50 (VEGFR II (KDR kinase)): 500 nM

Compound: O=C(NCCN1CCCCC1)c1ccccc1NCc1ccncc1 [Example 1.27]
- IC50 (VEGFR II (KDR kinase)): 1000 nM
- melting point: 65.2 °C
